Experimental data from US20230279379A1, “METHODS AND MICROFLUIDIC DEVICE FOR PRODUCING EXTRACELLULAR VESICLES” (THE BOARD OF TRUSTEES OF THE UNIVERSITY OF ILLINOIS, priority 2022, published 2023).

Tested on: CD63-K2S^+ MVBs in D1 mouse MSCs
Experiment: Intracellular CD63-K2S+ MVB transport by TIRF microscopy
Format: cell-based
Settings: Arp2/3 inhibition by CK869
Excerpt: Lentiviral-Mediated Expression of CD63 Fused with Fluorescent Proteins. Katushka2S (far-red fluorescent protein) was fused with CD63 in a lentiviral expression vector (CD63-K2S vector) and expressed in D1 MSCs according to known methods. The sequence for pHLuorin2 (pH-sensitive green fluorescent protein) was synthesized by GenScript and exchanged with the Katushka2S in the same vector using restriction enzyme cloning. The resulting CD63-pHLuorin2 lentiviral vector was transduced in D1 MSCs in a similar method as the CD63-K2S vector. Cells were selected by treatment with 5 μg/mL puromycin over 3 days and confirmed to express fluorescent signal versus non-transduced cells.
Total Internal Reflection Fluorescence (TIRF) Imaging of Cells on Substrates. To covalently bond crosslinked PEG-DA hydrogel to a thin glass surface, acrylate groups were attached to glass coverslips by silanization. […]
CD63-Katushka2S Data Analysis. […] Intracellular bodies were determined using Gaussian smoothing and local background intensity thresholding (with automatically determined thresholds) to detect surfaces followed by tracking their position (x, y) over time (t). […] Multivescular body (MVB) area was computed for each time t and reported as the mean area across total track time T. Tracks were then analyzed via a custom MATLAB (R2017b, MathWorks) program. Track MSD was calculated as […]

**Q.** For `COc1ccc(N2C(=O)CSC2c2cccc(Br)c2)c(OC)c1` (centres unmarked) [CK869], which “transport exponent α” value is on record?
**A.** ~0.5

**Q.** And the “MVB transport (tracks, <MSD> vs t, D0.4s)” value (soft and stiff substrate)?
**A.** significantly enhanced transport on either substrate
